Data on six molecules can be found in patent publication US20090142347A1, “Tissue-Nonspecific Alkaline Phosphatase (TNAP): a Therapeutic Target for Arterial Calcification” (THE BURNHAM INSTITUTE FOR MEDICAL RESEARCH, priority 2004, published 2009).

Read-outs that look alike come from different tables or passages of the source.

What is called Ki is a dissociation constant, usually derived from enzyme kinetics or from competition with a known ligand.

One data set has as its target T1, hPLALP (R428, H429) (Homo sapiens, UniProt P05187, D450R/E451H).
T1 construct: made in house; host or cells: COS-7 (given only for the TNAP-Flag constructs)
Briefly: Ki of uncompetitive inhibitors (pNPP substrate). The format is biochemical. The note with it: hPLALP mutant (R428, H429); read-out: Ki for various inhibitors. How it is done:
(§1) In brief, samples of the enzymes were added to microtiter plates coated with M2 anti-FLAG antibody, and saturating activities with the substrate pNPP were measured in 1 M DEA/HCl buffer, pH 9.8, containing 1 mM MgCl2 and 20 .micro.M ZnCl2.

The target in another data set is T2, hPLALP H429 (Homo sapiens, UniProt P05187, E451H).
T2 construct: made in house; host or cells: COS-7 (given only for the TNAP-Flag constructs)
T2 sequence (P05187 23-506 E451H limits assumed): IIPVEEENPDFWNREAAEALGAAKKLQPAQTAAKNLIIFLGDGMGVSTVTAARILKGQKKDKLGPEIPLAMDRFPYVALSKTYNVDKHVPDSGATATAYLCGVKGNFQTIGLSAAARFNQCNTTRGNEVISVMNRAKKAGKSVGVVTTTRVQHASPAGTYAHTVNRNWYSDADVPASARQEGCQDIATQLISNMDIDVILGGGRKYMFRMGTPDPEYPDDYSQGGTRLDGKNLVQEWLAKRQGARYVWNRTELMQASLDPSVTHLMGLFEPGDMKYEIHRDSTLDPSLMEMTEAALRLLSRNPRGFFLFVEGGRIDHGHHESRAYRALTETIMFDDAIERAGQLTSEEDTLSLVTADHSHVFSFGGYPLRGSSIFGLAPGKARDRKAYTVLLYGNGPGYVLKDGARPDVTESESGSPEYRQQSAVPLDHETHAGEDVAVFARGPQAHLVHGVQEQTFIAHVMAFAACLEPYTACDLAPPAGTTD
Briefly: Ki of uncompetitive inhibitors (pNPP substrate). Conditions: hPLALP mutant H429; read-out: Ki for various inhibitors. Format: biochemical. The procedure:
as §1

The target of the next data set is T3, hPLALP G108 (Homo sapiens, UniProt P05187, Q130G).
T3 construct: made in house; host or cells: COS-7 (given only for the TNAP-Flag constructs)
T3 sequence (P05187 23-506 Q130G limits assumed): as the sequence (P05187 23-506 E451H limits assumed) above, with Q108G, H429E counted along it
Briefly: Ki of uncompetitive inhibitors (pNPP substrate). The format is biochemical. Conditions: hPLALP mutant G108; read-out: Ki for various inhibitors. The procedure: as §1

The target in the next data set is T4, hPLALP (G108, G429) (Homo sapiens, UniProt P05187, E451G/Q130G).
T4 construct: made in house; host or cells: COS-7 (given only for the TNAP-Flag constructs)
T4 sequence (P05187 23-506 Q130G/E451G limits assumed): as the sequence (P05187 23-506 E451H limits assumed) above, with Q108G, H429G counted along it
Briefly: Ki of uncompetitive inhibitors (pNPP substrate). The format is biochemical. The note with it: hPLALP mutant (G108, G429); read-out: Ki for various inhibitors. How it is done:
as §1

Another data set deals with T5, hPLALP D165 (Homo sapiens, UniProt P05187, N187D).
T5 construct: made in house; host or cells: COS-7 (given only for the TNAP-Flag constructs)
T5 sequence (P05187 23-506 N187D limits assumed): as the sequence (P05187 23-506 E451H limits assumed) above, with N165D, H429E counted along it
Briefly: Ki of uncompetitive inhibitors (pNPP substrate). The format is biochemical. Conditions: hPLALP mutant D165; read-out: Ki for various inhibitors. How it is done:
as §1

The target in a further data set is T6, hPLALP (E107, G429) (Homo sapiens, UniProt P05187, E451G/F129E).
T6 construct: made in house; host or cells: COS-7 (given only for the TNAP-Flag constructs)
T6 sequence (P05187 23-506 F129E/E451G limits assumed): as the sequence (P05187 23-506 E451H limits assumed) above, with F107E, H429G counted along it
Briefly: Ki of uncompetitive inhibitors (pNPP substrate). The format is biochemical. Conditions: hPLALP mutant (E107, G429); read-out: Ki for various inhibitors. How it is done:
as §1

The next data set concerns the target T7, hPLALP S119 (Homo sapiens, UniProt P05187, N141S).
T7 construct: made in house; host or cells: COS-7 (given only for the TNAP-Flag constructs)
Briefly: Ki of uncompetitive inhibitors (pNPP substrate). The format is biochemical. The note with it: hPLALP mutant S119; read-out: Ki for various inhibitors. The procedure:
as §1

The target of the next data set is T8, hPLALP E107 (Homo sapiens, UniProt P05187, F129E).
T8 construct: made in house
T8 sequence (P05187 23-506 F129E limits assumed): as the sequence (P05187 23-506 E451H limits assumed) above, with F107E, H429E counted along it
Briefly: Ki of uncompetitive inhibitors (pNPP substrate). Format: biochemical. Conditions: hPLALP mutant E107; read-out: Ki for various inhibitors. The procedure: as §1

The next data set deals with T9, hPLALP R428 (Homo sapiens, UniProt P05187, D450R).
T9 construct: made in house; host or cells: COS-7 (given only for the TNAP-Flag constructs)
T9 sequence (P05187 23-506 D450R limits assumed): as the sequence (P05187 23-506 E451H limits assumed) above, with D428R, H429E counted along it
Briefly: Ki of uncompetitive inhibitors (pNPP substrate). The format is biochemical. The note with it: hPLALP mutant R428; read-out: Ki for various inhibitors. The procedure:
as §1

A further data set has as its target T10, hPLALP (Homo sapiens, UniProt P05187).
T10 construct: made in house
Briefly: Ki of uncompetitive inhibitors (pNPP substrate). Format: biochemical. The note with it: read-out: Ki for various inhibitors. The procedure:
as §1

Another data set deals with T11, hPLALP (E107, G108) (Homo sapiens, UniProt P05187, F129E/Q130G).
T11 construct: made in house; host or cells: COS-7 (given only for the TNAP-Flag constructs)
T11 sequence (P05187 23-506 F129E/Q130G limits assumed): as the sequence (P05187 23-506 E451H limits assumed) above, with F107E, Q108G, H429E counted along it
Briefly: Ki of uncompetitive inhibitors (pNPP substrate). The format is biochemical. The note with it: hPLALP mutant (E107, G108); read-out: Ki for various inhibitors. How it is done:
as §1

The target of a further data set is T12, chTNALP (Gallus gallus, UniProt Q92058).
T12 sequence (Q92058 17-498): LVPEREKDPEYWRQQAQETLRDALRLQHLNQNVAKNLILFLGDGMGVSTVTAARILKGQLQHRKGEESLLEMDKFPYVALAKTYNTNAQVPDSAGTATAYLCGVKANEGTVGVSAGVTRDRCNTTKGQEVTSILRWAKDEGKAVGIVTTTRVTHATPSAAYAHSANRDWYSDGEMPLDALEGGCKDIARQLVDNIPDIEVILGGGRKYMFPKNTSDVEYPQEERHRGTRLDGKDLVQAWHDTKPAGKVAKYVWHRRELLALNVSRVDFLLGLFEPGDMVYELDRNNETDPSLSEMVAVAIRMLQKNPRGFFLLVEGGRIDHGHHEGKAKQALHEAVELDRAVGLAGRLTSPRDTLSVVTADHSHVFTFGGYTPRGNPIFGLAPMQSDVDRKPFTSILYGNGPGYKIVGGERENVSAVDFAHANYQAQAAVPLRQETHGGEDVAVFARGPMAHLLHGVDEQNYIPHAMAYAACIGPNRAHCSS
Briefly: Ki of uncompetitive inhibitors (pNPP substrate). The format is biochemical, chicken. From the text: (See Kozlenkov A, et al., 2002). […] TNAP and PLAP structures were superimposed and the amino acid differences within a 12 Å radius around the catalytic Zn1 ion were pinpointed. The difference between human TNAP and chicken TNAP were also mapped because it is reported that chicken TNAP is much less susceptible to levamisol than is human TNAP. In total, six positions with amino acid differences were found, which could be clustered into two groups. […] In addition, […] and […] were also investigated.

Data set [1] has as its system bovine VSMC calcification. The note with it: Shioi et al., 1995; cited from earlier work.
For data set [2], the target named is Recombinant human FLAG-TNAP (Homo sapiens, UniProt P05186). Briefly: Chemical library screening, TNAP pNPP microtiter plate assay. The note with it: for inhibition response: positive controls, 0.5 mM pNPP, pH 9.8, concentration not given.
Chain of Recombinant human FLAG-TNAP (P05186 18-501 limits assumed): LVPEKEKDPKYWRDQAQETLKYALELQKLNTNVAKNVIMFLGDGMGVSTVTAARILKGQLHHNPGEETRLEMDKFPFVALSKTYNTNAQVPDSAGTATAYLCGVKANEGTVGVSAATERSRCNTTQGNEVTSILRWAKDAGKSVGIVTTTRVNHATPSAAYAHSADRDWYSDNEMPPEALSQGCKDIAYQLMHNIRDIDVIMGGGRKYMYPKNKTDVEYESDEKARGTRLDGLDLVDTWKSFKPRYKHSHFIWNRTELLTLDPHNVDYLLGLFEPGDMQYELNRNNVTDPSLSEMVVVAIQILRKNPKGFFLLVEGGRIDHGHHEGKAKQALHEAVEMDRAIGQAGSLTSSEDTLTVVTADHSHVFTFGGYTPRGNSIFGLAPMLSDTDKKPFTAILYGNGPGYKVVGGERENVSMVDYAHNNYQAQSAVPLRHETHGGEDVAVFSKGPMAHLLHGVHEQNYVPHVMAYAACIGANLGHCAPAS
A further data set concerns wild-type osteoblasts. The note with it: wild-type osteoblasts treated with exogenous PPi; RT-PCR. From the text: To determine whether affecting the function of either NPP1 or ANK would have beneficial consequences on hypophosphatasia by reducing the amounts of extracellular PPi in the Akp2−/− mice, we bred either Enpp1−/− or ank/ank mice to the Akp2−/− mice. […] Hypophosphatasia arises from deficits in TNAP activity, resulting in an increase in PPi levels and concomitant increase in OPN levels.

The subject of the next data set is Akp2−/− mice. Conditions: Narisawa et al., 2001; cited from earlier work.
Data set [3] relates to TNAP activity in Enpp1−/− and ank/ank derived VSMC. Conditions: Enpp1−/− and ank/ank derived VSMC in vitro, tetramisole 0.125 mM, 3 weeks (FIG. 5). From the text: Left panel: A) immunofluorscent detection of smooth muscle alpha-actin. VSMCs were isolated from WT aorta by collagenase digestion, all cells were stained for actin filaments (F-actin) by rhodamine phalloidin (red), and VSMCs were stained using a specific FITC-conjugated monoclonal anti-SM-alpha-actin (green). B) Proportion of cells staining positive for SM-alpha-actin. C) Total RNA was isolated and SM alpha-actin was detected by RT-PCR analysis. Middle panel: VSMCs isolated from WT, Enpp1−/− and ank/ank mice were cultured in the presence of beta-glycerophosphate for 4 weeks. Cells were then stained for TNAP activity (pink) and using von Kossa staining, mineral was detected (black/brown). The area of the culture well in which mineralization was present was quantified by using a point-counting method in which the plate was placed on a grid (divided into 10 mm×10 mm squares) and visualized using a dissecting microscope, the percent area occupied by mineral was assessed by counting the occurrences where the presence of mineral coincided with intercepts on the grid.

The test system of data set [4] is Enpp1−/− and ank/ank mice. Conditions: subcutaneous, ALZET osmotic pumps, 10 μg/g/day, compared to control mice. How it is done:
Flexibility was measured after euthanasia by determining the degree to which the root of the tail could be pulled back towards the neck, shoulders or lumbar spine until resistance prevented further flexing.
Tetramisole was delivered via ALZET osmotic pumps (Durect Corporation, Cupertino, Calif.) at a dose of 10 μg/g/day.

The subject of another data set is MC3T3-E1 cells. The text has this:
(§2) In one example of this pharmacological study tetramisole will be used. […] For ApoE−/− mice arterial calcification is established by 3-months of age. Thus, the pump can feasibly be planted as early as 1-month of age, allowing treatment to begin at least as early.

The conditions of data set [5]: dose of 30 micrograms/g BW; results not shown.
Text: as §2

T10 sequence (P05187 23-506 limits assumed): as the sequence (P05187 23-506 E451H limits assumed) above, with H429E counted along it
T1 sequence (P05187 23-506 D450R/E451H limits assumed): as the sequence (P05187 23-506 E451H limits assumed) above, with D428R counted along it
T7 sequence (P05187 23-506 N141S limits assumed): as the sequence (P05187 23-506 E451H limits assumed) above, with N119S, H429E counted along it

Consider `c1ccc([C@H]2CN3CCSC3=N2)cc1` [Levamisole], for which the Ki amounted to 34 ± 1 µM at hPLALP (R428, H429); 50 ± 3 µM on hPLALP H429; 458 ± 30 µM on hPLALP G108; 480 ± 60 µM at hPLALP (G108, G429); 680 ± 140 µM at hPLALP D165; 535 ± 80 µM on hPLALP (E107, G429). The Ki at hPLALP S119 was 630 ± 90 µM; on hPLALP E107 it was 1050 ± 40 µM; on hPLALP R428, 460 ± 40 µM; on hPLALP it was 563 ± 56 µM; at hPLALP (E107, G108) it was 1150 ± 60 µM; on chTNALP (read-out: Ki for various inhibitors), 136 ± 20 µM. Further, the “bovine VSMC calcification” value in [1] was “blocks bovine VSMC calcification in a dose-dependent manner”. Moreover, the inhibition response entry in [2] is recorded as “around 50%”. The “inhibition of the enzymatic activity of TNAP (confirmed screening hits)” value in data set [2] (screen of 53,080 compounds) is reported as “inhibit the enzymatic activity of TNAP”.
As to `O=P(O)(O)OP(=O)(O)O` [PPi, Inorganic pyrophosphate], in the data set with wild-type osteoblasts, the “NPP1 and ANK expression” value is “decreased NPP1 and ANK expression”; the OPN expression entry was “increase in OPN expression”.
Take `Cn1c(=O)c2[nH]cnc2n(C)c1=O` [Theophylline, theophylline]: the Ki at chTNALP (Ki for various inhibitors, (1)*, (1)*: 1 mM pNPP) was 393 ± 150 µM; on chTNALP (Ki for various inhibitors, (20)*, (20)*: 20 mM pNPP) it was 111 ± 8 µM.
For `Cc1ncc(CO)c(C=O)c1O` [pyridoxal], in the data set with Akp2−/− mice, the “apoptosis in the thymus and the lumbar nerve roots” value is given as “reverses apoptosis”; the epileptic seizures entry was “suppresses the epileptic seizures”.
Consider `c1ccc(C2CN3CCSC3=N2)cc1` (stereo not drawn) [tetramisole], for which the entries for the “TNAP activity in VSMC” value in data set [3] and in [3] (listed as Tetramisole) were “inhibits TNAP activity” and “normalize TNAP activity”, respectively. The “flexibility of the spine” value in data set [4] is “enhanced flexibility of the spine”. In the data set on MC3T3-E1 cells, the PPi levels result is “raise PPi levels”. Besides, the tolerability result in data set [5] is listed as “well tolerated”.
Take phosphate: the inhibition response entry in data set [2] is “around 50%”.
